# Measured values as given in patent US20240262791A1, “B[…] […] AMINO ACIDS” (priority 2021, published 2024).
# Key:
# Afb7X = Afb7X and MBP-Z(24F-FSY) cross-linking; assay type: biochemical; settings: MBP-Z(24F-FSY) with Afb7X, PBS pH 7.4, 37° C., 12 h
# Protocol: We also introduced F-FSY into the maltose binding protein (MBP) fused Z protein at position 24 (MBP-Z(24F-FSY)). The purified MBP-Z(24F-FSY) was analyzed by electrospray ionization time-of-flight mass spectrometry (ESI-TOF MS). A peak observed at 50829 Da corresponds to intact MBP-Z containing F-FSY at site 24 (data not shown). We then tested the reactivities of F-FSY towards amino acid residue using the binding complex of MBP-Z and the Zspa affibody (Afb). Upon Afb-Z binding, F-FSY would be place in close proximity with the residue at position 7 of Afb (Afb7X) and would form a covalent bond with the targeting residue, causing protein-protein cross-linking.
# 0.5 mg/ml Afb7X and 1 mg/ml MBP-Z(24F-FSY) were incubated in PBS (pH 7.4) at 37° C. for 12 h, after which 1 j.tL reaction solution was extracted and mixed with 10 j.tL Laemmli loading buffer. The mixture was heated to 95° C. for 10 min and then loaded for SDS-PAGE, after which the gel was stained with Coomassie blue and imaged with ChemiDoc™ MP imaging system (Bio-rad).
# WT Spike RBD = target: T1, WT Spike RBD (Severe acute respiratory syndrome coronavirus 2, UniProt P0DTC2); assay type: biochemical, SARS-CoV-2
# T1 construct: SARS-CoV-2 spike protein, RBD, 6His tag (S protein) was purchased from ACRObiosystems (#SRD-C52H3); purchased ACRObiosystems #SRD-C52H3
# [1] = SFY crosslinking of protein residues and RNA in cells; assay type: cell-based; settings: E. coli and HEK293T cells
# Protocol: FIG. 4B: Fluorescence confocal images HEK293 cells expressing EGFP(40TAG) gene and the Mm-tRNA^Pyl/MmSFYRS with and without 1 mM SFY. FIG. 4C: Flow cytometric analysis of SFY incorporation into EGFP(40TAG) in HEK293 cells using Ma-tRNA^Pyl/MaSFYRS. […] FIGS. 4E-4F: Analysis of crosslinking of Afb(24SFY) with MBP-Z(7X) in E. coli cells. Western blot of E. coli cell lysate (FIG. 4E); SDS-PAGE of proteins His-tag purified from E. coli (FIG. 4F). Maltose binding protein (MBP) was fused to the N-terminus of Z protein to better separate Z from Afb in size. […] FIG. 4H: Western blot analysis of lysate of HEK293T cells expressing GST(103SFY-107X). X is the target residue indicated. FIG. 4I: Western blot analysis E. coli cells expressing Hfq with SFY incorporated at site 25 or 49. Cell lysate samples were treated with or without RNase before loading, and an anti-His antibody was used to detect the 6×His tag appended at the C-terminus of expressed Hfq.
# HEK293T cells = assay type: cell-based; settings: 0 to 1 mM SFY, 24-48 h
# Protocol: 2×10^4 cells/well of HEK293T cells were seeded in a 96-well plate. On the next day, the media were replaced with fresh DMEM media supplemented with 0, 0.0625, 0.125, 0.25, 0.5, or 1 mM of SFY. The SFY-treated and control cells were cultured for an additional 24-48 h at 37° C. and then analyzed with CellTiter-Blue® Cell Viability Assay following the manufacturer's instructions.
# GST = assay: Cross-linking of GST-103SFY-107X in live mammalian cells; assay type: cell-based; settings: SFY at site 103 of GST, residue 107 varied, HEK293T cells
# Protocol: […] of pcDNA-GST-103TAG-107X (X=A, H, Y or K)^3 and […] of pNEU-MmSFYRS-4xU6M15 were co-transfected into target cells using 5 μL of lipofectamine 2000 following the manufacturer's instructions. Six hours post transfection, the media were replaced with complete DMEM media with or without 1 mM SFY. The cells were incubated at 37° C. for additional 48 h, collected, and applied for immunoblot analysis.
# [2] = test system: nucleoside monophosphates (NMPs: AMP, UMP, CMP, or GMP); assay: In vitro incubations of NMPs and SFY; settings: 50 mM SFY, 50 mM NMP, 37° C.
# Protocol: In addition, to check if SFY could cross-link all four nucleotides, we incubated 50 mM SFY with 50 mM different nucleoside monophosphates (NMPs: AMP, UMP, CMP, or GMP) at 37° C. for 16 hours.
# 50 mM SFY (HCl salt) and 50 mM NMP was incubated in DI H2O. 50 mM NaOH was added to neutralize the HCl salt. The mixture was incubated at 37° C. for 48 h. Then the reaction mixture was diluted for 50 times in H2O/acetonitrile (50/50, v/v, with 0.1% trifluoracetic acid) and subjected to mass spectrum analysis using positive mode. Mass spectrum analysis was performed on SCIEX MDS, 3200 Q TRAP system.
# [3] = healthy volunteers in phase I trial, patients in phase II trial; cited from earlier work
# [4] = test system: HeLa-EGFP (182TAG) reporter cells; assay: Genetic incorporation of mFSY in HeLa-EGFP (182TAG) reporter cells; assay type: cell-based; settings: no mFSY added or 1 mM mFSY added
# From the text: FIGS. 12A-12C: Genetic incorporation of mFSY into proteins in mammalian cells. FIG. 12A: FACS analysis of mFSY incorporation into HeLa-EGFP (182TAG) cells. Negative control cells were either not transfected with any plasmid or were not treated with mFSY. FACS data is representative of three biological replicates. FIG. 12B: Bar graph showing total EGFP fluorescence percentage from FACS data. Error bar: s.d., n=3. FIG. 12C: Fluorescence microscopy and brightfield images of HeLa-EGFP (182TAG) reporter cells under two conditions: no mFSY added or 1 mM mFSY added.
compound,measurement,setting,value
NC(Cc1ccc(OS(=O)(=O)F)c(F)c1)C(=O)O (centres unmarked) [FFY],residues forming a covalent bond with F-FSY,Afb7X,"form a covalent bond with Lys, His and Tyr"
same,PERx reaction rate over FSY in the mNB6 system,WT Spike RBD,240%
"COc1ccc(CC(N)C(=O)O)cc1S(=O)(=O)F (centres unmarked) [SFY, o-sulfonyl fluoride-O-methyltyrosine]",crosslinking capability of SFY,[1],"allows crosslinking of His, Tyr, Lys residues in protein and of RNA in cells"
same,toxicity to HEK293T cells,HEK293T cells,did not observe obvious toxicity
same,residues reacting with SFY placed in proximity,GST,"react with His, Tyr, and Lys"
same,cross-linking adducts with NMPs detected by MS,[2],Cross-linking adducts of SFY with all four NMPs were detected
rhACE2,safety and tolerability,[3],safe and well tolerated
"NC(Cc1cccc(OS(=O)(=O)F)c1)C(=O)O [mFSY, meta-fluorosulfate-L-tyrosine]",EGFP fluorescence (mFSY incorporation),[4],Fluorescence is only seen after the addition of mFSY
